Values of other authors, collected in article PMC8043539 (Journal of Enzyme Inhibition and Medicinal Chemistry, 2021).

molecular target: Sapp1p; settings: inhibition of Sapp1p from C. parapsilosis

Row | Molecule | Ki
1 | CC(C)[C@H](NC(=O)OC(C)(C)C)C(=O)N[C@H](C(=O)N[C@@H](Cc1ccccc1)[C@@H](O)CC(=O)N[C@@H](C)C(=O)N[C@@H](Cc1ccccc1)[C@@H](O)CC(N)=O)C(C)C [KB70, tert-butyl-oxycarbonyl-valine-valine-phenylstatine-alanine-phenylstatine-NH2] | 0.1 nM
2 | COC(=O)[C@H](C)NC(=O)C[C@H](O)[C@H](Cc1ccccc1)NC(=O)[C@@H](NC(=O)[C@@H](NC(=O)OC(C)(C)C)C(C)C)C(C)C [KB74, tert-butyl-oxycarbonyl-valine-valine-phenylstatine-alanine-OMe] | 14.6 nM
3 | isovaleric acid-valine-valine-statine-alanine-statine [Pepstatin A, reference compound] | 0.3 nM
